Experimental data taken from paper PMC12388884, “Discovery of Small-Molecule PD-L1 Inhibitors via Virtual Screening and Their Immune-Mediated Anti-Tumor Effects” (Pharmaceuticals, 2025).
Numbered stars: 1 amine (or outer) side, 2 acyl side, 3 side chain; on linkers, the order of the positions; unused ones are H or OH. Bridge positions count the residues as written; N and C are the ends. Square brackets hold non-standard residues; d marks the D form. Peptide text beside a SMILES is read from it. * marks the point of attachment. pTerphenylCO(4''-OnC5H11) = CCCCCOc1ccc(-c2ccc(-c3ccc(C(=O)*)cc3)cc2)cc1; Orn(4R-OH,5R-OH) = O=C([C@H](C[C@@H](O)[C@@H](O)N[*:3])N[*:1])[*:2]; hTyr(3S-OH,4S-OH) = N[C@H](C(=O)O)[C@H](O)[C@@H](O)c1ccc(O)cc1; Pro(3S-OH,4S-Me) = C[C@H]1CN[C@H](C(=O)O)[C@H]1O; Hyp = O=C(O)[C@@H]1C[C@@H](O)CN1

Biological target: T1, PD-L1 (Homo sapiens, UniProt Q9NZQ7)
T1 construct: gene CD274
Assay: bio-layer interferometry (BLI), immobilized recombinant human PD-L1, […] global kinetic fit
Type: binding

T1 sequence (Q9NZQ7 19-290): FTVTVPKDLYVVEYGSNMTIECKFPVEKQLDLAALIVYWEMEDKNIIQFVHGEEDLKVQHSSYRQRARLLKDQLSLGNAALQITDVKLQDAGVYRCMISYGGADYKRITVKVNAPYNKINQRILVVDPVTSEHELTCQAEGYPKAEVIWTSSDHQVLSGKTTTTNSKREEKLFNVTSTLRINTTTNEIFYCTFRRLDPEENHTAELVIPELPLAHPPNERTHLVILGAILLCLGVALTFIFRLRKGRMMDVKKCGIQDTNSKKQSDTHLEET

## CCCCCOc1ccc(-c2ccc(-c3ccc(C(=O)N[C@H]4C[C@@H](O)[C@@H](O)NC(=O)[C@@H]5[C@@H](O)[C@@H](C)CN5C(=O)[C@H]([C@@H](C)O)NC(=O)[C@H]([C@H](O)[C@@H](O)c5ccc(O)cc5)NC(=O)[C@@H]5C[C@@H](O)CN5C(=O)[C@H]([C@@H](C)O)NC4=O)cc3)cc2)cc1 [anidulafungin] ({pTerphenylCO(4''-OnC5H11)}-[Orn(4R-OH,5R-OH)]T[Hyp][hTyr(3S-OH,4S-OH)]T[Pro(3S-OH,4S-Me)]; lactam 1-C)
  Kd: 76.9 µM
